{"source": "ChEMBL document CHEMBL5647694", "about": "“Novel orally bioavailable EZH1/2 dual inhibitors with greater antitumor efficacy than an EZH2 selective inhibitor” (Cancer Sci, 2017)", "key": {"[1]": {"experiment": "Toxicity in Crl:CD Sprague-Dawley rat assessed as decrease in food consumption at 100 mg/kg, po administered daily for 14 days", "format": "organism-based", "conditions": "in vivo, 336 h, time 14 day"}, "[2]": {"experiment": "Toxicity in Crl:CD Sprague-Dawley rat assessed as eosinophil count in blood at 100 mg/kg, po administered daily for 14 days (reference value: 0.085+/-0.04 10^3/uL)", "format": "organism-based", "conditions": "in vivo, 336 h, time 14 day"}, "[3]": {"experiment": "Toxicity in Crl:CD Sprague-Dawley rat assessed as monocyte count in blood at 100 mg/kg, po administered daily for 14 days (reference value: 0.203+/-0.09 10^3/uL)", "format": "organism-based", "conditions": "in vivo, 336 h, time 14 day"}, "[4]": {"experiment": "Toxicity in Crl:CD Sprague-Dawley rat assessed as creatine kinase level in blood at 100 mg/kg, po administered daily for 14 days (reference value: 164 +/-5U/L)", "format": "organism-based", "conditions": "in vivo, 336 h, time 14 day"}, "[5]": {"experiment": "Toxicity in Crl:CD Sprague-Dawley rat assessed as total cholesterol level in blood at 100 mg/kg, po administered daily for 14 days (reference value: 63.5 +/-[…])", "format": "organism-based", "conditions": "in vivo, 336 h, time 14 day"}, "[6]": {"experiment": "Toxicity in Crl:CD Sprague-Dawley rat assessed as inorganic phosphorus level in blood at 100 mg/kg, po administered daily for 14 days (reference value: 6.02+/-0.628 mg/dL)", "format": "organism-based", "conditions": "in vivo, 336 h, time 14 day"}, "[7]": {"experiment": "Toxicity in Crl:CD Sprague-Dawley rat assessed as chloride level in blood at 100 mg/kg, po administered daily for 14 days (reference value: 104 +/-1.5 mEq/L)", "format": "organism-based", "conditions": "in vivo, 336 h, time 14 day"}, "[8]": {"experiment": "Toxicity in Crl:CD Sprague-Dawley rat assessed as vacuolation of histiocytes in thymus cortex at 100 mg/kg, po administered daily for 14 days by hematoxylin and eosin staining based analysis", "format": "organism-based", "conditions": "in vivo, 336 h, time 14 day"}, "[9]": {"experiment": "Toxicity in Crl:CD Sprague-Dawley rat assessed as hypertrophy of zona fasciculata/reticularis cells in adrenal at 100 mg/kg, po administered daily for 14 days by hematoxylin and eosin staining based analysis", "format": "organism-based", "conditions": "in vivo, 336 h, time 14 day"}, "ARH-77": {"test_system": "ARH-77", "experiment": "Antitumor activity against human ARH-77 cells assessed as cell growth inhibition treated for 10 to 15 days", "format": "functional", "conditions": "time 10-15 day"}, "GA-10": {"test_system": "GA-10", "experiment": "Antitumor activity against human GA-10 cells assessed as cell growth inhibition treated for 10 to 15 days", "format": "functional", "conditions": "time 10-15 day"}, "Raji": {"test_system": "Raji", "experiment": "Antitumor activity against human Raji cells assessed as cell growth inhibition treated for 10 to 15 days", "format": "functional", "conditions": "time 10-15 day"}, "[10]": {"target": "Histone-lysine N-methyltransferase NSD2 (Homo sapiens, UniProt O96028, T1150A)", "sequence (O96028 whole entry T1150A)": "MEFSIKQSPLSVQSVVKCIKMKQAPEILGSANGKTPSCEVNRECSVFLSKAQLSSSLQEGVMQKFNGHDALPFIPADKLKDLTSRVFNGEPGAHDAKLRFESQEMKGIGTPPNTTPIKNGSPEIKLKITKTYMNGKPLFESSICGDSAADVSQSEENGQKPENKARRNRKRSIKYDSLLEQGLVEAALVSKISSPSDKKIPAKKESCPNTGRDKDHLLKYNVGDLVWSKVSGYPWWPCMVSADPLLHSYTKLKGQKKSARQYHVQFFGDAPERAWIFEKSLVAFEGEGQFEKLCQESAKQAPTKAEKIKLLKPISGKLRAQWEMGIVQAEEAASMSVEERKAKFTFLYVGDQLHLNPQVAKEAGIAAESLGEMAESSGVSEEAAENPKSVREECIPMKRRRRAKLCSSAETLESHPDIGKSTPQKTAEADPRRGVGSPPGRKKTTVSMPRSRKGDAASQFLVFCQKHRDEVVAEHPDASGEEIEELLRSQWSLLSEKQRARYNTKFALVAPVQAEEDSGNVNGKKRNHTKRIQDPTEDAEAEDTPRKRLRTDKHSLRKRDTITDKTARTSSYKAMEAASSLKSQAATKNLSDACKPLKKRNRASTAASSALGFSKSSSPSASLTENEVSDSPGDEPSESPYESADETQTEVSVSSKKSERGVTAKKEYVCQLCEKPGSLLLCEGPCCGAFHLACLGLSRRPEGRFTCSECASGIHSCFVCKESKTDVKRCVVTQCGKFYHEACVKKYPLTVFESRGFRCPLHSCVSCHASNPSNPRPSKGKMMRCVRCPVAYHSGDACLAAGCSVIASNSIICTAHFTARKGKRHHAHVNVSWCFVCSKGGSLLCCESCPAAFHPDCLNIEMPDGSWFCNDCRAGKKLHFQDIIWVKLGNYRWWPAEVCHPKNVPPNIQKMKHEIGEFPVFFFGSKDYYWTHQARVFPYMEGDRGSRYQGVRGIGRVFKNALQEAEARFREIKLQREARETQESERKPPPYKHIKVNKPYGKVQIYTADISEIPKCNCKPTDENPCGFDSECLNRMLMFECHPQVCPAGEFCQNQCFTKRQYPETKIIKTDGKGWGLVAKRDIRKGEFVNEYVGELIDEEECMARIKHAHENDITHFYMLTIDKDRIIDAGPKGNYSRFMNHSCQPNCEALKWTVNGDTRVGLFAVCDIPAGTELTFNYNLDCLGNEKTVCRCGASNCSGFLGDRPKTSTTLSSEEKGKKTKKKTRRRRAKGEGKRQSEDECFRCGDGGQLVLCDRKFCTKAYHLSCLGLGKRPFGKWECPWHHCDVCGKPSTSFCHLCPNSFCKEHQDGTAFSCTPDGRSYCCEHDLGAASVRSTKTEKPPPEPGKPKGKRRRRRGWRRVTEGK", "experiment": "Inhibition of human NSD2 T1150A mutant using Nucleosomes and [3H]SAM as substrate incubated for 30 mins to 1 hr by HotSpot kinase assay"}, "[11]": {"target": "Histone-lysine N-methyltransferase SETD1B (Homo sapiens, UniProt Q9UPS6)", "sequence (Q9UPS6 whole entry)": "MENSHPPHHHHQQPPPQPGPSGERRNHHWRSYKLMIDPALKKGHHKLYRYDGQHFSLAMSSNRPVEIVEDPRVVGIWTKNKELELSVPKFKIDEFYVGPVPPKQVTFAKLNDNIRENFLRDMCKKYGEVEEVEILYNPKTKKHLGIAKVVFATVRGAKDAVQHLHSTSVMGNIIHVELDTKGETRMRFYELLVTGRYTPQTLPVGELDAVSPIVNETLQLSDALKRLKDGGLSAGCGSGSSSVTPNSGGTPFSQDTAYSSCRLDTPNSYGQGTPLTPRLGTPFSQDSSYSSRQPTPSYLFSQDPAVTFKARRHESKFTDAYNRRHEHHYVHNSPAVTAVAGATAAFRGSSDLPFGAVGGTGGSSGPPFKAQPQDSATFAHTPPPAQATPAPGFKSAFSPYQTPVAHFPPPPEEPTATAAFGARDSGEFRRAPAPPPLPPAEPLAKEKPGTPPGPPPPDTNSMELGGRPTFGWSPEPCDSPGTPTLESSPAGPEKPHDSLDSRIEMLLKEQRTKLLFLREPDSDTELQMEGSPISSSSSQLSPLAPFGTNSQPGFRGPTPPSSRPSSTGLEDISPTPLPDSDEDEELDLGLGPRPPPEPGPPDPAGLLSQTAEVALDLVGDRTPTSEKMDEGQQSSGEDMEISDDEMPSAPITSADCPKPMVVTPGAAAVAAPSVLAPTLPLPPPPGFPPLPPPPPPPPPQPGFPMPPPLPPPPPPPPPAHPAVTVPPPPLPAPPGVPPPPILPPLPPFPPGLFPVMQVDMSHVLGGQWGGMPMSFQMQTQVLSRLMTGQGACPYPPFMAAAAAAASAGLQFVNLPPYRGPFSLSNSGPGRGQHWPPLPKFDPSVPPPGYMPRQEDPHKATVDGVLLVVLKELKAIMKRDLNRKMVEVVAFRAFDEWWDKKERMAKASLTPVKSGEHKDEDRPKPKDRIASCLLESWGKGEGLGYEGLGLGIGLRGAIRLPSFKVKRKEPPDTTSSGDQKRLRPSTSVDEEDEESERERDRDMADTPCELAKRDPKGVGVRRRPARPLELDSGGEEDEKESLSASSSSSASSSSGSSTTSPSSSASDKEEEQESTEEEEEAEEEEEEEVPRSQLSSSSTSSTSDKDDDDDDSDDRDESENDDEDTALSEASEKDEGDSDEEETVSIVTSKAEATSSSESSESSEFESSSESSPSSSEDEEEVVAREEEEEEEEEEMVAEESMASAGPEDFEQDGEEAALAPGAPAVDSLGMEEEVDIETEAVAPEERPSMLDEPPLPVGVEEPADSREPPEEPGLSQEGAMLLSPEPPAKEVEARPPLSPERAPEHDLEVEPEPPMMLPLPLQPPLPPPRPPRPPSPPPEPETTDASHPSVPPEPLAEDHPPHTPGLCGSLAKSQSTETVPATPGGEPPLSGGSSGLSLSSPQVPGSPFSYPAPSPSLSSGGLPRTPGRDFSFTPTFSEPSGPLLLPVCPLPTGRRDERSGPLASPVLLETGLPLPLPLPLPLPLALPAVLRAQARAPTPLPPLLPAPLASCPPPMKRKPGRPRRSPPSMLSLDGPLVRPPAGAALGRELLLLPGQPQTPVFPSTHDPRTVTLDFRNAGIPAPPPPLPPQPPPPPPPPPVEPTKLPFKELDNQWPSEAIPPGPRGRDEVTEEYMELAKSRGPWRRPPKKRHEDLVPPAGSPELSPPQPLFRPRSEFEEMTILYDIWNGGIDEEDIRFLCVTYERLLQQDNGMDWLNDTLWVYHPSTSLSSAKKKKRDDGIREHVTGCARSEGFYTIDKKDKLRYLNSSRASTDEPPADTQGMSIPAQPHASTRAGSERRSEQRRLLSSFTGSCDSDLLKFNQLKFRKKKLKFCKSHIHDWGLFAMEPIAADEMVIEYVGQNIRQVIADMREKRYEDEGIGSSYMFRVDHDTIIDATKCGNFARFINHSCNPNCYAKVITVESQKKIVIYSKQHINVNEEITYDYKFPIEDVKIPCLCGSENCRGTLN", "experiment": "Inhibition of human SET1B using Core Histone and [3H]SAM as substrate incubated for 30 mins to 1 hr by HotSpot kinase assay"}, "[12]": {"target": "Ephrin type-A receptor 2 (Homo sapiens) (UniProt P29317)", "experiment": "Inhibition of N-terminal GST-fused human EPHA2 cytoplasmic domain (572 to 976 residues) expressed in baculovirus-infected Sf21 cells using Blk/Lyntide as substrate at 1 uM in presence of ATP by Mobility shift assay"}, "[13]": {"target": "Ephrin type-B receptor 2 (Homo sapiens) (UniProt P29323)", "sequence (P29323 whole entry, the tested form may be a part)": "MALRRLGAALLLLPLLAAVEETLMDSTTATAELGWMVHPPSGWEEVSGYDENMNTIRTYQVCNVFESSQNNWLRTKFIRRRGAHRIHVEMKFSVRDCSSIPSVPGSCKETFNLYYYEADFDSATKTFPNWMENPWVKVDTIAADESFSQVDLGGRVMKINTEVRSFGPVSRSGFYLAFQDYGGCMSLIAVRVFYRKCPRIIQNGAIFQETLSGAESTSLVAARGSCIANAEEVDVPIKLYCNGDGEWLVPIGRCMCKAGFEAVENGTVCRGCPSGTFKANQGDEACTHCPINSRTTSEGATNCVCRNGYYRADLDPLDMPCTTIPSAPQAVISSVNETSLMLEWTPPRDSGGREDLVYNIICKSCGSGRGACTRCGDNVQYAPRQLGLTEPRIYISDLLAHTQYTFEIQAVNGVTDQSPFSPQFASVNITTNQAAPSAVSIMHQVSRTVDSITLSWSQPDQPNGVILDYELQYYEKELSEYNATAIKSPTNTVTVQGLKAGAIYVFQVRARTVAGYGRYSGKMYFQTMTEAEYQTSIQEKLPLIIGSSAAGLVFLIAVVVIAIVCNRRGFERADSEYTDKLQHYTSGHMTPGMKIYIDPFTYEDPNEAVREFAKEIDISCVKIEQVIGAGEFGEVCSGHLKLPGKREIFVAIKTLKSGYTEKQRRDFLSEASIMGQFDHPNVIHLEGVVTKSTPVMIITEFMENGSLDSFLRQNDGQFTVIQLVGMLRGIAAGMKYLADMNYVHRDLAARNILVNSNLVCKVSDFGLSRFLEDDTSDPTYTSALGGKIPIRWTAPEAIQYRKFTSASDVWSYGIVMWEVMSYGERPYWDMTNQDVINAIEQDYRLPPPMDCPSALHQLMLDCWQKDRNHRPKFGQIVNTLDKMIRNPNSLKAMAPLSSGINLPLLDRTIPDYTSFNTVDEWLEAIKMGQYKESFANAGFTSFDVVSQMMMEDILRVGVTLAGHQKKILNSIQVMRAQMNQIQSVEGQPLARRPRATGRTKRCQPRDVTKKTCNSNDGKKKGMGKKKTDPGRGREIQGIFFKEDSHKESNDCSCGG", "experiment": "Inhibition of N-terminal GST-fused human EPHB2 cytoplasmic domain (581 to 987 residues) expressed in baculovirus-infected Sf21 cells using Blk/Lyntide as substrate at 1 uM in presence of ATP by Mobility shift assay"}, "[14]": {"target": "Serine/threonine-protein kinase D2 (Homo sapiens) (UniProt Q9BZL6)", "experiment": "Inhibition of N-terminal GST-fused full length human PKD2 (1 to 878 residues) expressed in baculovirus expression system using GS peptide as substrate at 1 uM in presence of ATP by Mobility shift assay"}, "[15]": {"target": "Serine/threonine-protein kinase Sgk2 (Homo sapiens) (UniProt Q9HBY8)", "sequence (Q9HBY8 whole entry, the tested form may be a part)": "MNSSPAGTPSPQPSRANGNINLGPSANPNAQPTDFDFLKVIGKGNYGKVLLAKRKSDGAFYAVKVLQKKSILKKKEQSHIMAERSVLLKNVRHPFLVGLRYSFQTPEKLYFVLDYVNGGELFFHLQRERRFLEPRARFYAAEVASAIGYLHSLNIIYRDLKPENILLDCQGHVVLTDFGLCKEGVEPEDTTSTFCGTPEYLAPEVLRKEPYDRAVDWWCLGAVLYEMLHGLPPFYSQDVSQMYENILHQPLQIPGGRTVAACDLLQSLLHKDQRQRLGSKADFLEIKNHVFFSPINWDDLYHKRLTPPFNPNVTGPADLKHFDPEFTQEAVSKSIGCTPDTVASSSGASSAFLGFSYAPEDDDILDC", "experiment": "Inhibition of N-terminal GST-fused full length human SGK2 (1 to 367 residues) expressed in baculovirus expression system using SGKtide as substrate at 1 uM in presence of ATP by Mobility shift assay"}, "LOUCY": {"test_system": "LOUCY", "experiment": "Antitumor activity against human LOUCY cells assessed as cell growth inhibition treated for 10 to 15 days", "format": "functional", "conditions": "time 10-15 day"}, "REH": {"test_system": "REH", "experiment": "Antitumor activity against human REH cells assessed as cell growth inhibition treated for 10 to 15 days", "format": "functional", "conditions": "time 10-15 day"}, "MV4-11": {"test_system": "MV4-11", "experiment": "Antitumor activity against human MV4-11 cells assessed as cell growth inhibition treated for 10 to 15 days", "format": "functional", "conditions": "time 10-15 day"}, "[16]": {"experiment": "Antitumor activity against human EB1 cells assessed as cell growth inhibition treated for 10 to 15 days", "format": "functional", "conditions": "time 10-15 day"}, "ST486": {"test_system": "ST486", "experiment": "Antitumor activity against human ST486 cells assessed as cell growth inhibition treated for 10 to 15 days", "format": "functional", "conditions": "time 10-15 day"}, "DB": {"test_system": "DB", "experiment": "Antitumor activity against human DB cells assessed as cell growth inhibition treated for 10 to 15 days", "format": "functional", "conditions": "time 10-15 day"}, "SUD4": {"test_system": "SUD4", "experiment": "Antitumor activity against human SU-DHL-4 cells assessed as cell growth inhibition treated for 10 to 15 days", "format": "functional", "conditions": "time 10-15 day"}, "H9": {"test_system": "H9", "experiment": "Antitumor activity against human H9 cells assessed as cell growth inhibition treated for 10 to 15 days", "format": "functional", "conditions": "time 10-15 day"}, "ATN-1": {"test_system": "ATN-1", "experiment": "Antitumor activity against human ATN-1 cells assessed as cell growth inhibition treated for 10 to 15 days", "format": "functional", "conditions": "time 10-15 day"}, "SK-N-MC": {"test_system": "SK-N-MC", "experiment": "Antitumor activity against human SK-N-MC cells assessed as cell growth inhibition treated for 10 to 15 days", "format": "functional", "conditions": "time 10-15 day"}, "HCC1187": {"test_system": "HCC1187", "experiment": "Antitumor activity against human HCC1187 cells assessed as cell growth inhibition treated for 10 to 15 days", "format": "functional", "conditions": "time 10-15 day"}, "HCC1599": {"test_system": "HCC1599", "experiment": "Antitumor activity against human HCC1599 cells assessed as cell growth inhibition treated for 10 to 15 days", "format": "functional", "conditions": "time 10-15 day"}, "LoVo": {"test_system": "LoVo", "experiment": "Antitumor activity against human LoVo cells assessed as cell growth inhibition treated for 10 to 15 days", "format": "functional", "conditions": "time 10-15 day"}, "HCC2935": {"test_system": "HCC2935", "experiment": "Antitumor activity against human HCC2935 cells assessed as cell growth inhibition treated for 10 to 15 days", "format": "functional", "conditions": "time 10-15 day"}, "[17]": {"experiment": "Antitumor activity against human COV362 cells assessed as cell growth inhibition treated for 10 to 15 days", "format": "functional", "conditions": "time 10-15 day"}, "OAW-42": {"test_system": "OAW-42", "experiment": "Antitumor activity against human OAW-42 cells assessed as cell growth inhibition treated for 10 to 15 days", "format": "functional", "conditions": "time 10-15 day"}, "HPAC": {"test_system": "HPAC", "experiment": "Antitumor activity against human HPAC cells assessed as cell growth inhibition treated for 10 to 15 days", "format": "functional", "conditions": "time 10-15 day"}, "Panc1005": {"test_system": "Panc1005", "experiment": "Antitumor activity against human Panc1005 cells assessed as cell growth inhibition treated for 10 to 15 days", "format": "functional", "conditions": "time 10-15 day"}, "PC-3": {"test_system": "PC-3", "experiment": "Antitumor activity against human PC-3 cells assessed as cell growth inhibition treated for 10 to 15 days", "format": "functional", "conditions": "time 10-15 day"}, "ECC10": {"test_system": "ECC10", "experiment": "Antitumor activity against human ECC10 cells assessed as cell growth inhibition treated for 10 to 15 days", "format": "functional", "conditions": "time 10-15 day"}, "TGBC11TKB": {"test_system": "TGBC11TKB", "experiment": "Antitumor activity against human TGBC11TKB cells assessed as cell growth inhibition treated for 10 to 15 days", "format": "functional", "conditions": "time 10-15 day"}, "MKN-1": {"test_system": "MKN-1", "experiment": "Antitumor activity against human MKN-1 cells assessed as cell growth inhibition treated for 10 to 15 days", "format": "functional", "conditions": "time 10-15 day"}}, "data": [{"smiles": "Cc1cc(C)c(CNC(=O)c2cc(Br)c3c(c2C)O[C@@](C)([C@H]2CC[C@H](N(C)C)CC2)O3)c(=O)[nH]1", "values": [{"measurement": "Activity", "setting": "[1]", "value": "Toxic"}, {"measurement": "Activity", "setting": "[2]", "value": "0.168 10^3 /uL"}, {"measurement": "Activity", "setting": "[3]", "value": "0.105 10^3 /uL"}, {"measurement": "Activity", "setting": "[4]", "value": 186, "unit": "U/L"}, {"measurement": "Activity", "setting": "[5]", "value": 64, "unit": "mg/dL"}, {"measurement": "Activity", "setting": "[6]", "value": 5.97, "unit": "mg/dL"}, {"measurement": "Activity", "setting": "[7]", "value": 105, "unit": "mEq/L"}, {"measurement": "Activity", "setting": "[8]", "value": "Toxic"}, {"measurement": "Activity", "setting": "[9]", "value": "Toxic"}]}, {"smiles": "Cc1cc(C)c(CNC(=O)c2cc(Cl)c3c(c2C)O[C@@](C)([C@H]2CC[C@H](N(C)C)CC2)O3)c(=O)[nH]1", "note": "[VALEMETOSTAT]", "values": [{"measurement": "GI50", "setting": "ARH-77", "value": "> 1", "unit": "µM"}, {"measurement": "GI50", "setting": "GA-10", "value": 0.0149, "unit": "µM"}, {"measurement": "GI50", "setting": "Raji", "value": 0.0112, "unit": "µM"}, {"measurement": "IC50", "setting": "[10]", "value": 100, "unit": "µM"}, {"measurement": "IC50", "setting": "[11]", "value": 100, "unit": "µM"}, {"measurement": "inhibition", "setting": "[12]", "value": -6.7, "unit": "%"}, {"measurement": "inhibition", "setting": "[13]", "value": -6.2, "unit": "%"}, {"measurement": "inhibition", "setting": "[14]", "value": -4.7, "unit": "%"}, {"measurement": "inhibition", "setting": "[15]", "value": -9, "unit": "%"}, {"measurement": "GI50", "setting": "LOUCY", "value": "> 1", "unit": "µM"}, {"measurement": "GI50", "setting": "REH", "value": "> 1", "unit": "µM"}, {"measurement": "GI50", "setting": "MV4-11", "value": 0.00319, "unit": "µM"}, {"measurement": "GI50", "setting": "[16]", "value": 0.0482, "unit": "µM"}, {"measurement": "GI50", "setting": "ST486", "value": "> 1", "unit": "µM"}, {"measurement": "GI50", "setting": "DB", "value": 0.00411, "unit": "µM"}, {"measurement": "GI50", "setting": "SUD4", "value": 0.0555, "unit": "µM"}, {"measurement": "GI50", "setting": "H9", "value": 0.00958, "unit": "µM"}, {"measurement": "GI50", "setting": "ATN-1", "value": 0.0438, "unit": "µM"}, {"measurement": "GI50", "setting": "SK-N-MC", "value": "> 1", "unit": "µM"}, {"measurement": "GI50", "setting": "HCC1187", "value": "> 1", "unit": "µM"}, {"measurement": "GI50", "setting": "HCC1599", "value": "> 1", "unit": "µM"}, {"measurement": "GI50", "setting": "LoVo", "value": 0.15, "unit": "µM"}, {"measurement": "GI50", "setting": "HCC2935", "value": "> 1", "unit": "µM"}, {"measurement": "GI50", "setting": "[17]", "value": "> 1", "unit": "µM"}, {"measurement": "GI50", "setting": "OAW-42", "value": "> 1", "unit": "µM"}, {"measurement": "GI50", "setting": "HPAC", "value": "> 1", "unit": "µM"}, {"measurement": "GI50", "setting": "Panc1005", "value": "> 1", "unit": "µM"}, {"measurement": "GI50", "setting": "PC-3", "value": "> 1", "unit": "µM"}, {"measurement": "GI50", "setting": "ECC10", "value": 0.0845, "unit": "µM"}, {"measurement": "GI50", "setting": "TGBC11TKB", "value": 0.0867, "unit": "µM"}, {"measurement": "GI50", "setting": "MKN-1", "value": "> 1", "unit": "µM"}]}]}
